In ChEMBL document CHEMBL5038645, “Discovery of Mycobacterium tuberculosis Rv3364c-Derived Small Molecules as Potential Therapeutic Agents to Target SNX9 for Sepsis” (J Med Chem, 2022):
≈ marks a conversion by molar mass, not a printed value.

How the values were obtained:
Assay type in all cases: functional
[1] = Antiinflammatory activity in […] cells assessed as reduction in LPS-induced TNF-alpha release at 10 uM pre incubated for 1 hr followed by LPS stimulation and measured after 30 mins by ELISA
[2] = Antiinflammatory activity in […] cells assessed as reduction in LPS-induced NOX release at 10 uM pre incubated for 1 hr followed by LPS stimulation and measured after 30 mins by ELISA
[3] = Antiinflammatory activity in […] cells assessed as reduction in LPS-induced IL-6 release at 10 uM pre incubated for 1 hr followed by LPS stimulation and measured after 30 mins by ELISA
[4] = system: Escherichia coli; assay: Antibacterial activity against Escherichia coli ATCC 12701 assessed as bacterial clearance incubated for 6 to 24 hrs by microbroth dilution method; details: time 6-24 hrs
[5] = system: Staphylococcus aureus; assay: Antibacterial activity against Staphylococcus aureus ATCC 6538 assessed as bacterial clearance incubated for 6 to 24 hrs by microbroth dilution method; details: time 6-24 hrs
[6] = system: Pseudomonas aeruginosa; assay: Antibacterial activity against Pseudomonas aeruginosa ATCC 10145 assessed as bacterial clearance incubated for 6 to 24 hrs by microbroth dilution method; details: time 6-24 hrs

Row | Compound | inhibition at 10 µM [1] [%] | inhibition at 10 µM [2] [%] | inhibition at 10 µM [3] [%] | also measured
1 | CC(C)(C)c1ccc(-c2nc(NCCOCCN)nc(NCC3CCCO3)n2)cc1 (stereo not given) | 13.3 | 33.1 | 22.1 | –
2 | Cc1onc(-c2ccccc2)c1C(=O)N[C@@H]1C(=O)N2[C@@H]1SC(C)(C)[C@@H]2C(=O)O [OXACILLIN] | – | – | – | MIC80 [4]: 0.25 µg/mL (≈ 0.623 µM); MIC80 [5]: 0.06 µg/mL (≈ 0.149 µM); MIC80 [6]: 1.98 µg/mL (≈ 4.93 µM)
3 | CC(C)(C)c1ccc(Nc2nc(NCCOCCOCCN)nc(-c3ccc(C(C)(C)C)cc3)n2)cc1 | 23.2 | 29.2 | 32.8 | –
4 | CC(C)(C)c1ccc(-c2nc(NCCOCCOCCOCCN)nc(NCC3CCCO3)n2)cc1 (stereo not given) | 13.4 | 19.5 | 22.2 | –
5 | GENTAMICIN | – | – | – | MIC=>80 [4]: 0.99 µg/mL; MIC=>80 [5]: 0.5 µg/mL; MIC=>80 [6]: 7.94 µg/mL
6 | CC(C)(C)c1ccc(-c2nc(NCCOCCOCCN)nc(NCc3cccc(F)c3)n2)cc1 | 35.6 | 38.5 | 46.7 | –
7 | CC(C)(C)c1ccc(-c2nc(NCCOCCOCCN)nc(NCc3ccco3)n2)cc1 | 15.6 | 44.7 | 40.1 | –
8 | CC(C)(C)c1ccc(-c2nc(NCCOCCOCCN)nc(NCc3ccc(Cl)cc3)n2)cc1 | 15.2 | 38.4 | 50 | –
9 | NCCOCCOCCNc1nc(NCC2CCCO2)nc(-c2ccc(F)cc2)n1 (stereo not given) | 15.1 | 23 | 33.4 | –
10 | CC(C)(C)c1ccc(-c2nc(NCCOCCOCCN)nc(NCc3ccc(F)cc3)n2)cc1 | 30.1 | 46.1 | 53.3 | –
11 | CC(C)(C)c1ccc(-c2nc(NCCOCCOCCN)nc(NCc3cccc(Cl)c3)n2)cc1 | 50.1 | 41.5 | 43.3 | –
12 | Cc1ccc(-c2nc(NCCOCCOCCN)nc(NCC3CCCO3)n2)cc1 (stereo not given) | 50.1 | 40 | 50 | –
13 | COc1ccc(-c2nc(NCCOCCOCCN)nc(NCC3CCCO3)n2)cc1 (stereo not given) | 10.1 | 38.4 | 50.1 | –
14 | CC(C)(C)c1ccc(-c2nc(NCCOCCOCCN)nc(NCC3CCCCC3)n2)cc1 | 36.4 | 21.5 | 24.7 | –
15 | CC(C)(C)c1ccc(CNc2nc(NCCOCCOCCN)nc(-c3ccc(C(C)(C)C)cc3)n2)cc1 | 55.2 | 38.4 | 46.7 | –
